The values that follow come from ChEMBL document CHEMBL5725933, “Amino compounds for treatment of complement mediated disorders” (2017).

In this assay the target is Complement factor D (Homo sapiens, UniProt P00746). In words: Factor D Assay: Human factor D (purified from human serum, Complement Technology, Inc.) at 80 nM final concentration is incubated with test compound at various concentrations for 5 minutes at room temperature in 50 mM Tris, 1M NaCl, pH 7.5. A synthetic substrate Z-L-Lys-SBz1 and DTNB (Ellman's reagent) are added to final concentrations of 100 μM each. The increase in color is recorded at OD405 nm in a microplate in kinetic mode over 30 minutes with 30 second time points in a spectrofluorimeter. IC50 values are calculated by non-linear regression from the percentage of inhibition of complement factor D activity as a function of test compound concentration.
Sequence of Complement factor D (P00746 whole entry): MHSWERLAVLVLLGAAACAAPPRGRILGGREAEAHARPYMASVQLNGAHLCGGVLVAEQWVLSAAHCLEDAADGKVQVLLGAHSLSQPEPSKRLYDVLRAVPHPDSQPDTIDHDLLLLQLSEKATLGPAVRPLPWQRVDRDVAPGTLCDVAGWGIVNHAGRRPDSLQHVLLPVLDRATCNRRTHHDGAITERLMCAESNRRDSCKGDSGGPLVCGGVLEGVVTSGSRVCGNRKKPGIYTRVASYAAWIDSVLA

By IC50 is commonly meant the point on the concentration scale where inhibition reaches its midpoint. In the case of `CC(=O)c1cn(CC(=O)N2C[C@H](F)C[C@H]2C(=O)Nc2cccc(Br)n2)c2ccc(Nc3cncc(F)c3)cc12`, the 50% inhibitory concentration (IC50) is less than 1000 nM.
